How the values were obtained:
Rac1 = type: cell-based, African green monkey
TcdB = TcdB 50 ng, α-def-6 6 µM, PBS, 0.5 h, 37 °C (n = 3)
Description: (C) TcdB (50 ng) was incubated with or without α-def-6 (6 µM) in PBS for 0.5 h at 37 °C. Samples were centrifuged to segregate aggregates and divided into a supernatant (S) and pellet (P) fraction. Fractions were subjected to SDS-PAGE followed by Western blotting. TcdB was detected.
The TcdB stock was centrifuged for 20 min at 14,000 rpm and 4 °C to remove any preformed aggregates. TcdB (50 ng) was incubated in the absence or presence of α-def-6 (6 µM) for 30 min at 37 °C in a final volume of 35 µL PBS. The samples were centrifuged as before to segregate possible aggregates and subsequently separated into a supernatant (30 µL) and pellet fraction (5 µL). The pellet fraction was resuspended with 25 µL PBS to a final volume of 30 µL. Each fraction (30 µL) was then subjected to SDS-PAGE (8% polyacrylamide gel) and Western blotting. TcdB was detected using an anti-TcdB-antibody (1:1000, #ab270452, Abcam, Cambridge, UK) followed by an HRP-conjugated mouse anti-rabbit antibody (1:2500; #sc-2357; Santa Cruz Biotechnology, Dallas, TX, USA).

Vero cells [1] = test: Aggregation of TcdB-DL488 and cell morphology in Vero cells; type: cell-based, African green monkey; conditions: TcdB-DL488 22 nM + α-def-6 6 µM, 0.5 h, 37 °C (n = 2)
Description: Cells were fixed and permeabilized. […] Scale bars correspond to 50 µm. […] TcdB was detected.
Cells were grown in their respective media under humidified conditions at 37 °C and 5% CO2. Vero cells (African green monkey kidney cells; DSMZ, Braunschweig, Germany) were maintained in Gibco minimum essential medium (MEM; Thermo Fisher Scientific, Waltham, MA, USA) supplemented with 10% fetal calf serum (FCS; Thermo Fisher Scientific, Waltham, MA, USA), 1 mM sodium pyruvate (Thermo Fisher Scientific, Waltham, MA, USA), 2 mM L-glutamine (PAN-Biotech, Aidenbach, Germany), 0.1 mM non-essential amino acids (Thermo Fisher Scientific, Waltham, MA, USA) and 100 U/mL penicillin and 100 µg/mL streptomycin (both Thermo Fisher Scientific, Waltham, MA, USA). CaCo-2 cells (human epithelial colorectal adenocarcinoma cells, HTB-37; ATCC, Manassas, VA, USA) were cultured in Gibco Dulbecco’s Modified Eagle Medium (DMEM; Thermo Fisher Scientific, Waltham, MA, USA) plus 10% FCS, 1 mM sodium pyruvate, 0.1 mM non-essential amino acids and 100 U/mL penicillin and 100 µg/mL streptomycin.
Simultaneously the same volume of PBS was exposed to DyLight^TM 488 NHS-Ester to serve as a negative control in experiments. To remove free fluorescence dye, the samples were rebuffered by passing through Zeba^TM Spin Desalting Columns via centrifugation. […]

Vero cells [2] = type: cell-based, African green monkey
bacteria = conditions: cited from earlier work
Source text: The benchmark for treating CDIs is still the use of some specific antibiotics such as vancomycin, metronidazole or fidaxomicin [20]. More and more attention is also being paid to the direct inactivation of the secreted toxins, for example by using anti-toxin-antibodies such as bezlotoxumab or actoxumab. Following the approach of directly inactivating the secreted toxins and based on previous findings of our group and of others, we investigated the effects of human endogenous antimicrobial peptides on the C. difficile toxins TcdA and TcdB. […] The administration of α-def-6 protected human cells from TcdB, but also from the closely related TcdA and the clinically more relevant combination of both TcdA and TcdB. Exemplarily, the protective effect could be confirmed for TcdB in vivo using the zebrafish embryo ...

TcdB glucosyltransferase = test: In vitro glucosylation of Rac1 by TcdB (CaCo-2 lysate, Western blot); type: biochemical, C. difficile VPI 10463; conditions: CaCo-2 cell lysate 40 µg, TcdB 50 ng; α-def-6 up to 12 µM; 2 h, 37 °C, pH 7.5; Western blot (n = 4)
Description: The flow rate was 25 µL/min. […] A representative gel is shown (n = 2). […] GAPDH served as the loading control. A representative Western blot is shown.
To evaluate the potential effects of α-def-6 on TcdB glucosyltransferase activity, 40 µg of CaCo-2 cell lysate were used as a source of Rac1 and incubated with TcdB (50 ng) in glucosylation buffer (50 mM HEPES, 100 mM KCl, 2 mM MgCl2, 1 mM MnCl2, 100 mg/L BSA, pH 7.5) in a final volume of 20 µL. Two concentrations of α-def-6 (6 µM, 12 µM) were tested. Reactions were allowed to proceed for 2 h at 37 °C and stopped with the addition of a Laemmli buffer and heating for 10 min at 95 °C. The samples were loaded onto a 12.5% polyacrylamide gel and separated via SDS-PAGE followed by Western blotting. Unspecific binding sites were blocked with 5% (w/v) skim milk powder diluted in PBS with 0.1% (v/v) Tween®20 (PBS-T, pH 7.4) for 1 h at RT. The glucosylation status of Rac1 was assessed by probing with a mouse anti-Rac1-antibody (1:500, #610651, BD Biosciences, Franklin Lakes, NJ, USA) specifically directed against non-glucosylated Rac1 overnight at 4 °C. After washing, the membrane was incubated with a secondary horseradish-peroxidase (HRP)-conjugated goat-anti-mouse antibody (1:2500, #31430, Invitrogen by Thermo Fisher Scientific, Waltham, MA, USA) for 1 h at RT. Signals were detected using the ECL-system. […]

CaCo-2 monolayer [3] = type: cell-based, human
Vero cells [4] = type: cell-based, African green monkey; remark: listed apart in the source
CaCo-2 monolayer [5] = type: cell-based, human; remark: listed apart in the source

What does the source list for `CC[C@H](C)[C@@H]1NC(=O)CNC(=O)[C@H](CCSC)NC(=O)[C@H](C(C)C)NC(=O)[C@H]([C@@H](C)O)NC(=O)[C@@H]2CSSC[C@@H]3NC(=O)[C@H](Cc4c[nH]cn4)NC(=O)[C@@H](NC(=O)[C@@H](NC(=O)[C@H](Cc4ccccc4)NC(=O)[C@H](C)N)[C@@H](C)O)CSSC[C@@H](C(=O)N[C@@H](CC(C)C)C(=O)O)NC(=O)[C@H](CSSC[C@H](NC(=O)[C@H](CO)NC(=O)[C@H](CCCNC(=N)N)NC(=O)[C@H](CCCNC(=N)N)NC3=O)C(=O)N[C@@H](Cc3ccc(O)cc3)C(=O)N[C@@H](CO)C(=O)N[C@@H]([C@@H](C)O)C(=O)N[C@@H](CCC(=O)O)C(=O)N[C@@H](Cc3ccc(O)cc3)C(=O)N[C@@H](CO)C(=O)N[C@@H](Cc3ccc(O)cc3)C(=O)NCC(=O)N[C@@H]([C@@H](C)O)C(=O)N2)NC(=O)[C@H](Cc2ccccc2)NC(=O)[C@H](CCCNC(=N)N)NC(=O)[C@H](Cc2c[nH]cn2)NC(=O)[C@H](CC(N)=O)NC1=O` [α-def-6]?
glucosylation of Rac1 by TcdB (Rac1): clearly less Rac1 was glucosylated; shift of TcdB to pellet fraction (TcdB): shift of TcdB from the supernatant to the pellet fraction; morphological changes of TcdB-DL488-treated cells (Vero cells [1]): no morphological changes; toxin-defensin aggregates in the presence of cells (Vero cells [1]): toxin-defensins-aggregates were also visible; inhibition of toxin effects on cells, TcdA (Vero cells [2]): clear inhibition; protection of cells against TcdA (Vero cells [2]): clear protection; amount of rounded CaCo-2 cells, TcdB (CaCo-2 cells): reduced amount of rounded CaCo-2 cells was visible for at least 6 h; microbiocidal activity (bacteria; ref [27]): negligible microbiocidal activity; biocidal / antimicrobial activity (bacteria; ref [46]): surprisingly low antimicrobial activity; inhibition of enzymatic activity of the glucosyltransferase domain of TcdB (TcdB glucosyltransferase): almost no inhibition; TEER, TcdA (CaCo-2 monolayer [3]): clear delay in TEER-reduction; inhibition of toxin effects on cells, TcdA + TcdB (Vero cells [4]): clear inhibition; protection of cells against TcdA + TcdB (Vero cells [4]): clear protection; TEER, TcdA + TcdB (CaCo-2 monolayer [5]): clear delay in TEER-reduction
